Assay [1] deals with HCV genotype 1a (H77 strain) replicon in HUH-7 cells. Description: HCV replicon luciferase reporter assay, genotype 1a. Type of assay: cell-based. To be noted: Hepatitis C virus, Huh-7, 72 h, HCV genotype 1a replicon luciferase, 3 days incubation, read-out: LE_1a (EC50, range). Summed up:
(§1)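 Replicon inhibition for both genotypes was measured as Renilla luciferase signal (EnduRen, 7.5 μM final, 2 h) after 3-day, 37° C exposure of replicon-bearing HUH-7 cells in 4% FCS DMEM, 0.5% DMSO. The 1b construct carries S1179I; the 1a H77 construct carries P1496L and S2204I. Twenty-point, 3-fold dilutions were fitted four-parametrically for EC50, and CC50 was taken from multiplexed Cell Titer-Blue.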
Background: In antiviral work, replicon cells carry a viral genome segment that copies itself.

Assay [2] concerns HCV genotype 1b (Con1) replicon in HUH-7 cells. Nature of the assay: HCV replicon luciferase reporter assay, genotype 1b. Format: cell-based. To be noted: Hepatitis C virus, Huh-7, 72 h, HCV genotype 1b replicon luciferase, 3 days incubation, read-out: LE_1b (EC50, range). Summed up: as §1

Data on twelve compounds can be found in patent US9499550B2 (BRISTOL-MYERS SQUIBB COMPANY, priority 2012, dated 2016).

For `COc1ccc2c(O[C@@H]3C[C@H]4C(=O)N[C@]5(C(=O)NS(=O)(=O)C6CC6)C[C@H]5/C=C\CC[C@@H](C)C[C@@H](C)[C@H](NC(=O)O[C@@H]5C[C@@H]6C[C@@H]6C5)C(=O)N4C3)nc(-c3ccccc3)cc2c1` [Compound 5188, (1R,3r,5S)-bicyclo[3.1.0]hexan-3-yl((2R,6S,7R,9R,13aS,14aR,16aS,Z)-14a-((cyclopropylsulfonyl)carbamoyl)-2-((6-methoxy-3-phenylisoquinolin-1-yl)oxy)-7,9-dimethyl-5,16-dioxo-1,2,3,5,6,7,8,9,10,11,13a,14,14a,15,16,16a-hexadecahydrocyclopropa[e]pyrrolo[1,2-a][1,4]diazacyclopentadecin-6-yl)carbamate], the EC50 in assay [1] and in assay [2] was below 5.46 nM throughout.
As to `COc1ccc2c(O[C@@H]3C[C@H]4C(=O)N[C@]5(C(=O)NS(=O)(=O)C6CC6)C[C@H]5/C=C\CC[C@H](C)C[C@@H](C)[C@H](NC(=O)O[C@@H]5C[C@@H]6C[C@@H]6C5)C(=O)N4C3)nc(-c3ccccc3)cc2c1` [Compound 5189, (1R,3r,5S)-bicyclo[3.1.0]hexan-3-yl((2R,6S,7R,9S,13aS,14aR,16aS,Z)-14a-((cyclopropylsulfonyl)carbamoyl)-2-((6-methoxy-3-phenylisoquinolin-1-yl)oxy)-7,9-dimethyl-5,16-dioxo-1,2,3,5,6,7,8,9,10,11,13a,14,14a,15,16,16a-hexadecahydrocyclopropa[e]pyrrolo[1,2-a][1,4]diazacyclopentadecin-6-yl)carbamate], the EC50 in assay [1] and in assay [2] was below 5.46 nM each time.
As for `COc1ccc2c(O[C@@H]3C[C@H]4C(=O)N[C@]5(C(=O)NS(=O)(=O)C6CC6)C[C@H]5/C=C\CC[C@H](C)C[C@@H](C)[C@H](NC(=O)OC(C)(C)C(F)(F)F)C(=O)N4C3)nc(-c3ccccc3)cc2c1` [Compound 5191, 1,1,1-trifluoro-2-methylpropan-2-yl((2R,6S,7R,9S,13aS,14aR,16aS,Z)-14a-((cyclopropylsulfonyl)carbamoyl)-2-((6-methoxy-3-phenylisoquinolin-1-yl)oxy)-7,9-dimethyl-5,16-dioxo-1,2,3,5,6,7,8,9,10,11,13a,14,14a,15,16,16a-hexadecahydrocyclopropa[e]pyrrolo[1,2-a][1,4]diazacyclopentadecin-6-yl)carbamate], the EC50 in assay [1] and in assay [2] was below 5.46 nM in each case.
With `COc1ccc2c(O[C@@H]3C[C@H]4C(=O)N[C@]5(C(=O)NS(=O)(=O)C6CC6)C[C@H]5/C=C\CC[C@H](C)C[C@@H](C)[C@H](NC(=O)OC(C)(C)C)C(=O)N4C3)nc(-c3ccc(N4CCOCC4)cc3)cc2c1` [Compound 5192, tert-butyl ((2R,6S,7R,9S,13aS,14aR,16aS,Z)-14a-((cyclopropylsulfonyl)carbamoyl)-2-((6-methoxy-3-(4-morpholinophenyl)isoquinolin-1-yl)oxy)-7,9-dimethyl-5,16-dioxo-1,2,3,5,6,7,8,9,10,11,13a,14,14a,15,16,16a-hexadecahydrocyclopropa[e]pyrrolo[1,2-a][1,4]diazacyclopentadecin-6-yl)carbamate], the EC50 in assay [1] and in assay [2] was below 5.46 nM in each case.
On to `COc1ccc2c(O[C@@H]3C[C@H]4C(=O)N[C@]5(C(=O)NS(=O)(=O)C6CC6)C[C@H]5/C=C\CC[C@@H](C)C[C@@H](C)[C@H](NC(=O)OC(C)(C)C)C(=O)N4C3)nc(-c3ccc(N4CCOCC4)cc3)cc2c1` [Compound 5193, tert-butyl ((2R,6S,7R,9R,13aS,14aR,16aS,Z)-14a-((cyclopropylsulfonyl)carbamoyl)-2-((6-methoxy-3-(4-morpholinophenyl)isoquinolin-1-yl)oxy)-7,9-dimethyl-5,16-dioxo-1,2,3,5,6,7,8,9,10,11,13a,14,14a,15,16,16a-hexadecahydrocyclopropa[e]pyrrolo[1,2-a][1,4]diazacyclopentadecin-6-yl)carbamate], for which the EC50 in assay [1] and in assay [2] was below 5.46 nM each time.
For the compound `COc1ccc2c(O[C@@H]3C[C@H]4C(=O)N[C@]5(C(=O)NS(=O)(=O)C6CC6)C[C@H]5/C=C\CC[C@H](C)C[C@@H](C)[C@H](NC(=O)OC5C[C@@H]6C[C@@H]6C5)C(=O)N4C3)nc(-c3ccc(N4CCOCC4)cc3)cc2c1` (stereo partly drawn) [Compound 5194, (1R,3r,5S)-bicyclo[3.1.0]hexan-3-yl((2R,6S,7R,9S,13aS,14aR,16aS,Z)-14a-((cyclopropylsulfonyl)carbamoyl)-2-((6-methoxy-3-(4-morpholinophenyl)isoquinolin-1-yl)oxy)-7,9-dimethyl-5,16-dioxo-1,2,3,5,6,7,8,9,10,11,13a,14,14a,15,16,16a-hexadecahydrocyclopropa[e]pyrrolo[1,2-a][1,4]diazacyclopentadecin-6-yl)carbamate], the EC50 in assay [1] and in assay [2] was below 5.46 nM in each case.
In the case of `COc1ccc2c(O[C@@H]3C[C@H]4C(=O)N[C@]5(C(=O)NS(=O)(=O)C6CC6)C[C@H]5/C=C\CC[C@@H](C)C[C@@H](C)[C@H](NC(=O)OC5C[C@@H]6C[C@@H]6C5)C(=O)N4C3)nc(-c3ccc(N4CCOCC4)cc3)cc2c1` (stereo partly drawn) [Compound 5195, (1R,3r,5S)-bicyclo[3.1.0]hexan-3-yl((2R,6S,7R,9R,13aS,14aR,16aS,Z)-14a-((cyclopropylsulfonyl)carbamoyl)-2-((6-methoxy-3-(4-morpholinophenyl)isoquinolin-1-yl)oxy)-7,9-dimethyl-5,16-dioxo-1,2,3,5,6,7,8,9,10,11,13a,14,14a,15,16,16a-hexadecahydrocyclopropa[e]pyrrolo[1,2-a][1,4]diazacyclopentadecin-6-yl)carbamate], the EC50 in assay [1] and in assay [2] was below 5.46 nM in each case.
`COc1ccc2c(O[C@@H]3C[C@H]4C(=O)N[C@]5(C(=O)NS(=O)(=O)C6CC6)C[C@H]5/C=C\CC[C@H](C)C[C@@H](C)[C@H](NC(=O)OC(C)(C)C(F)(F)F)C(=O)N4C3)nc(-c3ccc(N4CCOCC4)cc3)cc2c1` [Compound 5196, 1,1,1-trifluoro-2-methylpropan-2-yl((2R,6S,7R,9S,13aS,14aR,16aS,Z)-14a-((cyclopropylsulfonyl)carbamoyl)-2-((6-methoxy-3-(4-morpholinophenyl)isoquinolin-1-yl)oxy)-7,9-dimethyl-5,16-dioxo-1,2,3,5,6,7,8,9,10,11,13a,14,14a,15,16,16a-hexadecahydrocyclopropa[e]pyrrolo[1,2-a][1,4]diazacyclopentadecin-6-yl)carbamate]: the EC50 in assay [1] and in assay [2] was below 5.46 nM each time.
In the case of `COc1ccc2c(O[C@@H]3C[C@H]4C(=O)N[C@]5(C(=O)NS(=O)(=O)C6CC6)C[C@H]5/C=C\CC[C@@H](C)C[C@@H](C)[C@H](NC(=O)OC(C)(C)C(F)(F)F)C(=O)N4C3)nc(-c3ccc(N4CCOCC4)cc3)cc2c1` [Compound 5197, 1,1,1-trifluoro-2-methylpropan-2-yl((2R,6S,7R,9R,13aS,14aR,16aS,Z)-14a-((cyclopropylsulfonyl)carbamoyl)-2-((6-methoxy-3-(4-morpholinophenyl)isoquinolin-1-yl)oxy)-7,9-dimethyl-5,16-dioxo-1,2,3,5,6,7,8,9,10,11,13a,14,14a,15,16,16a-hexadecahydrocyclopropa[e]pyrrolo[1,2-a][1,4]diazacyclopentadecin-6-yl)carbamate], the EC50 in assay [1] and in assay [2] was below 5.46 nM each time.
Turning to `COc1ccc2c(O[C@@H]3C[C@H]4C(=O)N[C@]5(C(=O)NS(=O)(=O)C6(C)CC6)C[C@H]5/C=C\CC[C@H](C)C[C@@H](C)[C@H](NC(=O)OC(C)(C)C(F)(F)F)C(=O)N4C3)nc(-c3ccc(N4CCOCC4)cc3)cc2c1` [Compound 5198, 1,1,1-trifluoro-2-methylpropan-2-yl((2R,6S,7R,9S,13aS,14aR,16aS,Z)-2-((6-methoxy-3-(4-morpholinophenyl)isoquinolin-1-yl)oxy)-7,9-dimethyl-14a-(((1-methylcyclopropyl)sulfonyl)carbamoyl)-5,16-dioxo-1,2,3,5,6,7,8,9,10,11,13a,14,14a,15,16,16a-hexadecahydrocyclopropa[e]pyrrolo[1,2-a][1,4]diazacyclopentadecin-6-yl)carbamate], the figures for the EC50 in assay [1] and in assay [2] were 4.82 to 103 nM and below 5.46 nM, respectively.
Taken in the same sequence, the figures for `COc1ccc2c(O[C@@H]3C[C@H]4C(=O)N[C@]5(C(=O)NS(=O)(=O)C6(C)CC6)C[C@H]5/C=C\CC[C@@H](C)C[C@@H](C)[C@H](NC(=O)OC(C)(C)C(F)(F)F)C(=O)N4C3)nc(-c3ccc(N4CCOCC4)cc3)cc2c1` [Compound 5199, 1,1,1-trifluoro-2-methylpropan-2-yl((2R,6S,7R,9R,13aS,14aR,16aS,Z)-2-((6-methoxy-3-(4-morpholinophenyl)isoquinolin-1-yl)oxy)-7,9-dimethyl-14a-(((1-methylcyclopropyl)sulfonyl)carbamoyl)-5,16-dioxo-1,2,3,5,6,7,8,9,10,11,13a,14,14a,15,16,16a-hexadecahydrocyclopropa[e]pyrrolo[1,2-a][1,4]diazacyclopentadecin-6-yl)carbamate] were below 5.46 nM and below 5.46 nM.
The matching figures for `COc1ccc2c(O[C@@H]3C[C@H]4C(=O)N[C@]5(C(=O)NS(=O)(=O)C6CC6)C[C@H]5/C=C\CC[C@H](C)C[C@@H](C)[C@H](NC(=O)OC(C)(C)C)C(=O)N4C3)nc(-c3ccc(OC(C)C)cn3)cc2c1` [Compound 5200, tert-butyl ((2R,6S,7R,9S,13aS,14aR,16aS,Z)-14a-((cyclopropylsulfonyl)carbamoyl)-2-((3-(5-isopropoxypyridin-2-yl)-6-methoxyisoquinolin-1-yl)oxy)-7,9-dimethyl-5,16-dioxo-1,2,3,5,6,7,8,9,10,11,13a,14,14a,15,16,16a-hexadecahydrocyclopropa[e]pyrrolo[1,2-a][1,4]diazacyclopentadecin-6-yl)carbamate]: below 5.46 nM and below 5.46 nM.

The EC50 is the concentration needed to bring the measured effect to its halfway point.
